Laboratory results published in PubChem BioAssay (NCI).
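96-well plates; 48 h exposure; 5 concentrations. Endpoints by linear interpolation between flanking doses. Not reached: highest tested concentration assigned. At the GI50, growth is halved. The concentration for full growth arrest is given as TGI.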

Legend:
Test in all cases: growth of human tumour cells (NCI), 48 h
A498 renal = test system: A498 renal
A549 NSCLC = test system: A549 NSCLC
K-562 leukemia = test system: K-562 leukemia
KM12 colon = test system: KM12 colon
LOX IMVI melanoma = test system: LOX IMVI melanoma
NCI-H23 lung = test system: NCI-H23 lung
CAKI-1 renal = test system: CAKI-1 renal
DU-145 prostate = test system: DU-145 prostate
NCI/ADR-RES ovarian = test system: NCI/ADR-RES ovarian
PC-3 prostate = test system: PC-3 prostate

Row | Compound | TGI (A498 renal) | TGI (A549 NSCLC) | TGI (K-562 leukemia) | TGI (KM12 colon) | TGI (LOX IMVI melanoma) | TGI (NCI-H23 lung) | TGI (CAKI-1 renal) | TGI (DU-145 prostate) | TGI (NCI/ADR-RES ovarian) | TGI (PC-3 prostate) | GI50 (A498 renal) | GI50 (A549 NSCLC) | GI50 (CAKI-1 renal) | GI50 (DU-145 prostate) | GI50 (K-562 leukemia) | GI50 (KM12 colon) | GI50 (LOX IMVI melanoma) | GI50 (NCI-H23 lung) | GI50 (NCI/ADR-RES ovarian) | GI50 (PC-3 prostate)
1 | Cc1c(C)c2cc3c(=O)c(CCl)coc3c(C)c2oc1=O | > 100 µM | > 100 µM | > 100 µM | > 100 µM | > 100 µM | > 100 µM |  |  |  |  |  |  |  |  |  |  |  |  |  | 
2 | Cn1cc(-c2ccc3c4ccccc4n(C)c3c2)c2ccccc21 | > 100 µM | > 100 µM | > 100 µM | > 100 µM | > 100 µM | > 100 µM | > 100 µM |  |  |  |  |  |  |  |  |  |  |  |  | 
3 | COc1ccc2nc3cc(Cl)ccc3c(Nc3ccccc3-c3ccccc3Nc3c4ccc(Cl)cc4nc4ccc(OC)cc34)c2c1 | 97.5 µM | > 100 µM | 59.3 µM | > 100 µM | 47.4 µM | > 100 µM | > 88.1 µM | > 100 µM | > 100 µM | 63 µM |  |  |  |  |  |  |  |  |  | 
4 | C=CC[P@]1(=O)O[C@H](c2ccccc2)C(C)N1C(C)C (some centres not stated) | > 100 µM | > 100 µM | > 100 µM | > 100 µM | > 100 µM | > 100 µM |  |  |  |  |  |  |  |  |  |  |  |  |  | 
5 | O=C(O)CCC(O)=C1S(=O)(=O)OCCOS1(=O)=O | > 100 µM | > 100 µM | > 100 µM | > 100 µM | > 100 µM | > 100 µM | > 100 µM | > 100 µM | > 100 µM | > 100 µM |  |  |  |  |  |  |  |  |  | 
6 | OCc1c(-c2cccs2)oc(-c2cccs2)c1CO | 91.7 µM | > 100 µM | > 100 µM | > 100 µM | 52.7 µM | > 100 µM | 94.9 µM | > 100 µM | > 100 µM | > 100 µM | 34.3 µM | 54.9 µM | 38.2 µM | 67.9 µM | 41 µM | 21.3 µM | 26.6 µM | 38.7 µM | 40.1 µM | 37.7 µM
7 | Cc1nc(-n2nc(-c3ccccc3)cc2-c2ccccc2)sc1C(=O)CC(=O)C(=O)Nc1ccc(Cl)c(Cl)c1 | > 100 µM | > 100 µM | > 100 µM | > 100 µM | > 100 µM | > 100 µM | > 100 µM |  |  |  |  |  |  |  |  |  |  |  |  | 
8 | COc1ccc2c(c1OC)C(=O)C2 |  | > 100 µM |  | > 100 µM | > 100 µM | > 100 µM |  |  |  |  |  |  |  |  |  |  |  |  |  | 
9 | N.N.N.N.N#N.N#N.[Cl-].[Os+6] |  | > 100 µM |  | > 100 µM | > 100 µM | > 100 µM | > 100 µM |  |  |  |  | > 100 µM | > 100 µM |  |  | > 100 µM | > 100 µM | > 100 µM |  | 
10 | CC(=O)OC1(Sc2ccccc2)CC2[C@H]3COC(C)(C)O[C@H]3CC[C@@]2(C)CC1=O (some centres not stated) |  | > 100 µM | > 100 µM | > 100 µM |  | > 100 µM | > 100 µM |  |  |  |  |  |  |  |  |  |  |  |  | 
11 | O=C1OC(c2ccc([N+](=O)[O-])cc2)=N/C1=C\c1ccc(Cl)cc1 | > 100 µM | > 100 µM | > 100 µM | > 100 µM | > 100 µM | > 100 µM | > 100 µM | > 100 µM |  | > 100 µM |  |  |  |  |  |  |  |  |  | 
12 | C=CCCC(O)c1cc(C)c(O)c(C)c1 (configuration not stated) | > 100 µM | > 100 µM | > 100 µM | > 100 µM | > 100 µM | > 100 µM |  |  |  |  |  |  |  |  |  |  |  |  |  | 
13 | CC(=O)c1cc2c(Br)cccc2oc1=O | > 100 µM | > 100 µM | > 100 µM |  | > 100 µM | > 100 µM | > 100 µM | > 100 µM | > 100 µM | > 100 µM |  |  |  |  |  |  |  |  |  | 
14 | COc1ccc(-c2nc(NC(=O)CS(=O)(=O)c3ccc(F)cc3)sc2C)cc1 | 32.8 µM |  | > 100 µM | 61 µM | 42.6 µM | > 100 µM | > 100 µM | > 100 µM | > 100 µM | 94.7 µM | 11.6 µM |  | 24.2 µM | 34.5 µM | 3.94 µM | 14.6 µM | 19.2 µM | 27.9 µM | 17.4 µM | 21.1 µM
15 | CC1=CC(=O)NP(=O)(Oc2ccc(Cl)cc2)N1 (configuration not stated) | > 100 µM | > 100 µM | > 100 µM | > 100 µM | > 100 µM | > 100 µM | > 100 µM |  |  |  |  |  |  |  |  |  |  |  |  | 
16 | COc1ccc2c(=O)c(-c3cc(OC)c(OC)cc3OC)coc2c1 | > 100 µM | > 100 µM | > 100 µM | > 100 µM | > 100 µM | > 100 µM | > 100 µM | > 100 µM |  | > 100 µM |  |  |  |  |  |  |  |  |  | 
17 | COC(=O)c1csc(-c2csc(CCNC(=O)OC(C)(C)C)n2)n1 | 99 µM | > 100 µM | > 100 µM | > 100 µM |  | > 100 µM |  | > 100 µM | > 100 µM | > 100 µM |  |  |  |  |  |  |  |  |  | 
18 | CN(C)CCNC(=O)c1ccc2c(c1)oc1cc3ccccc3c(=O)n12 |  | 27.5 µM | > 100 µM | 45.3 µM | 11 µM | > 100 µM | 25.4 µM |  | 34.5 µM | > 100 µM |  | 12.3 µM | 10.8 µM |  | 35.4 µM | 17 µM | 1.91 µM | 31.8 µM | 18.6 µM | 28.7 µM
19 | S=C1SCC2CCCN12 (configuration not stated) | > 100 µM | > 100 µM | > 100 µM | > 100 µM | > 100 µM |  | > 100 µM |  |  |  |  |  |  |  |  |  |  |  |  | 
20 | CC(=O)/C=C1\CC(=O)N(C)c2ccccc2N1 |  | > 100 µM | > 100 µM | > 100 µM | > 100 µM | > 100 µM | > 100 µM |  |  |  |  |  |  |  |  |  |  |  |  | 
21 | CC(C)(C)OC(=O)N(CCCCN(CCCn1c2c(c3ccccc3c1=O)C(=O)c1ccccc1-2)C(=O)OC(C)(C)C)CCCn1c2c(c3ccccc3c1=O)C(=O)c1ccccc1-2 |  | > 100 µM | > 100 µM | > 100 µM | > 100 µM | > 100 µM | > 100 µM | > 100 µM | > 100 µM | > 100 µM |  | 18.9 µM | 19.9 µM | 48.1 µM | 90.5 µM | 79.6 µM | 18.6 µM | 25 µM | 30.1 µM | 27.7 µM
